Molecules are shown by their SMILES. Like-named read-outs stand apart in the source and are kept apart here.

From paper PMC12775434, “Ultra-large virtual screening unveils potent agonists of the neuromodulatory orphan receptor GPR139” (Nature Communications, 2025) come the findings set out here.

The data set in a line: Bioanalysis of compounds in mouse plasma and brain. Format: in vivo. The following applies: one hour after 30 mg/kg i.p.; for concentration at 1 h: intraperitoneal. On the procedure:
Adult […] C57BL/6 J mice (3-6 months old) were provided by Charles River. Both females and males (15 females and 9 males) were used in this study. Sex was evenly distributed across experimental groups. Sex was not considered in the study design or analysis, as no reports indicate differential expression levels of GPR139 between male and female mice. They were housed with ad libitum food and water, in a temperature and humidity-controlled environment under a standard 12 h light/dark cycle. The experiments were performed in agreement with the European Council Directive (86/609/EEC) and approved by the local Animal Ethics Committee at Karolinska Institute (3218-2022). All efforts were made to minimize suffering and the number of animals used. Mice were treated with either 10% DMSO + 10% solutol HS-15 + 80% saline (vehicle, n = 8), compound 1.5 (n = 8, 30 mg/kg i.p.), or JNJ-63533054 (n = 8, 30 mg/kg i.p.), both of which were dissolved in 10% DMSO + 10% solutol HS-15 + 80% saline. Mice were placed in an open field arena 10 min after the injection and recorded for 50 min. Total distance travelled and the time spent in the periphery arena were measured using an automated video tracking system (EthoVision XT 11.5; Noldus). One-way ANOVA followed by Dunnett’s multiple comparisons test and Two-way ANOVA followed by Tukey’s multiple comparisons test were used. Brain and blood samples were taken immediately after the locomotion test. The brain samples were quickly frozen, and blood was drawn from the cervical vein upon decapitation into EP tubes. The samples were immediately centrifuged for 10 min at 3000 × g at 4 °C, and the plasma was transferred into clean polypropylene tubes. All samples were stored at −80 °C before analysis.
1.5(S) and JNJ-63533054, and the internal standard warfarin, were quantified in plasma and brain tissue samples, using ultraperformance liquid chromatography-tandem mass spectrometry (UPLC-MS/MS). Samples, respective blanks, standards, and quality controls (QCs) were included in each bioanalytical run. For both compounds, the calibration curves in plasma included standards at 0.5–10 µM, and QCs at 1.9–7.6 µM, and those in brain tissue homogenate included standards at 1–25 µM, and QCs at 1–20 µM.
Plasma samples were first diluted 1:2 (v:v) in blank plasma on a 96-well plate (Corning). Thereafter, the samples, along with blank plasma, standards, and QCs, were precipitated by adding 180 µL ice-cold acetonitrile containing 100 nM warfarin to 20 µL sample. Samples were vortexed and centrifuged at 2465 × g, at 4 °C, for 20 min (Centrifuge 5810 R, Eppendorf, Germany). The supernatants were transferred to a new 96-well plate and 2 µL were injected onto the UPLC-column. One hemisphere of the brains was homogenized 1:4 (w:v) with 0.1 % formic acid in 1:1 acetonitrile and methanol (v:v) in tubes containing ceramic beads (Precellys® Hard Tissue Homogenizing CK28 (inert 2.8 ceramic, zirconium oxide, beads), 2 mL, polypropylene co-polymer, Bertin Technologies). The mechanical homogenization was performed using a Minilys homogenizer (Bertin Technologies, France) for 30 s at the highest speed (5000 rpm). The tubes were centrifuged at 5204 × g for 7 min, and the supernatant was transferred to an Eppendorf tube. Subsequently, brain homogenate supernatants, along with supernatants from blank brain homogenate, standards, and QCs, were treated as described for diluted plasma samples. […]

Consider `CC(NC(=O)CNC(=O)c1cccc(Cl)c1)c1ccccc1` (centres unmarked) [JNJ-63533054, reference compound], for which the “total brain tissue concentration (Cbrain)” value was found to be 24.8 ± 6.2 µM and the “total plasma concentration (Cplasma)” value was 20.5 ± 5.3 µM. Besides, where the note is “both sexes, C57BL/6 J, brain, read-out: total brain tissue concentration (Cbrain)”, the concentration at 1 h was determined as 24.8 µM. Further, the Kp at 1 h (both sexes, C57BL/6 J, brain/plasma, ip, single time point, read-out: total brain-to-plasma concentration ratio (Kp,brain)) is 1.21 ± 0.12. Moreover, the concentration at 1 h (both sexes, C57BL/6 J, plasma, read-out: total plasma concentration (Cplasma)) stood at 20.5 µM.
